Here are results for nine compounds from ChEMBL document CHEMBL4184313, “Enantiomeric neolignans from Picrasma quassioides exhibit distinctive cytotoxicity on hepatic carcinoma cells through ROS generation and apoptosis induction” (Bioorg Med Chem Lett, 2018).

Molecules are shown by their SMILES. Activity calls are given as the source filed them. The calls are words filed in the database; no cut-off is given here.

For assay [1], the system named is HepG2. Description: Cytotoxicity against human HepG2 cells assessed as decrease in cell viability after 48 hrs by MTT assay. Type of assay: functional, cell-based. The following applies: HepG2, 48 h.
Assay [2] concerns Hep 3B2. Description: Cytotoxicity against human Hep3B cells assessed as decrease in cell viability after 48 hrs by MTT assay. Type of assay: functional, cell-based.
In assay [3] the test system is HepG2. The assay can be described thus: Cell cycle arrest in human HepG2 cells assessed as <2N DNA content at 50 uM after 48 hrs by PI staining based flow cytometry (reference value: 4.18%). The assay is classed as functional.
Assay [4] deals with HepG2. Description: Cell cycle arrest in human HepG2 cells assessed as 2N DNA content at 50 uM after 48 hrs by PI staining based flow cytometry (reference value: 70.6%). The assay is classed as functional.
Assay [5] has as its system HepG2. The assay can be described thus: Cell cycle arrest in human HepG2 cells assessed as accumulation at S phase at 50 uM after 48 hrs by PI staining based flow cytometry (reference value: 7%). Type of assay: functional.
Assay [6] has as its system HepG2. The assay can be described thus: Cell cycle arrest in human HepG2 cells assessed as 4N DNA content at 50 uM after 48 hrs by PI staining based flow cytometry (reference value: 15.2%). Type of assay: functional.
The subject of assay [7] is HepG2. Description: Cell cycle arrest in human HepG2 cells assessed as >4N DNA content at 50 uM after 48 hrs by PI staining based flow cytometry (reference value: 2.04%). The assay is classed as functional.
Assay [8] has as its system HepG2. The assay can be described thus: Induction of apoptosis in human HepG2 cells assessed as rounding of cells at 50 uM after 48 hrs by phase contrast microscopy. Type of assay: functional, cell-based.
Assay [9] deals with HepG2. The assay can be described thus: Induction of apoptosis in human HepG2 cells assessed as shrinkage of cells at 50 uM after 48 hrs by phase contrast microscopy. Type of assay: functional, cell-based.
Assay [10] relates to HepG2. The assay can be described thus: Induction of apoptosis in human HepG2 cells assessed as apoptotic bodies at 50 uM after 48 hrs by phase contrast microscopy. Type of assay: functional, cell-based.
Assay [11] concerns HepG2. Description: Induction of apoptosis in human HepG2 cells assessed as nuclear condensation at 50 uM after 48 hrs by […] staining based fluorescence microscopy. Type of assay: functional, cell-based.
Assay [12] concerns HepG2. Description: Induction of apoptosis in human HepG2 cells assessed as viable cells at 50 uM after 48 hrs by Annexin V-FITC/PI staining based flow cytometry (reference value: 95.7%). The following applies: HepG2, 48 h, read-out: Activity. Type of assay: functional.
Assay [13] has as its system HepG2. Description: Induction of apoptosis in human HepG2 cells assessed as early apoptotic cells at 50 uM after 48 hrs by Annexin V-FITC/PI staining based flow cytometry (reference value: 1.61%). The assay is classed as functional.
Assay [14] deals with HepG2. Description: Induction of apoptosis in human HepG2 cells assessed as late apoptotic cells at 50 uM after 48 hrs by Annexin V-FITC/PI staining based flow cytometry (reference value: 2.03%). Type of assay: functional.
In assay [15] the test system is HepG2. Description: Induction of apoptosis in human HepG2 cells assessed as necrotic cells at 50 uM after 48 hrs by Annexin V-FITC/PI staining based flow cytometry (reference value: 0.62%). Type of assay: functional.
Assay [16] relates to HepG2. Description: Induction of intracellular ROS accumulation in human HepG2 cells at 50 uM after 48 hrs by DCFH probe based flow cytometry. Type of assay: functional, cell-based.

In the case of `COc1cc([C@@H]2Oc3c(OC)cc(/C=C/CO)cc3[C@H]2CO)ccc1O` [DEHYDROCONIFERYL ALCOHOL], the IC50 worked out at 104 µM in assay [1] and 54.6 µM in [2]. In addition, the Activity came to 3.76% in assay [3]; 70.1% in [4]; 8.2% in assay [5]; 16.8% in assay [6]; 1.14% in assay [7]; 2.5% in assay [13]. Moreover, the Activity in assay [14] came out at 2.37%; in [15], 0.74%. Moreover, the result in assay [8], in assay [9], in [10] and in [11] was Active. For the same compound, in assay [12], the viability at 50 µM turned out to be 94.4%. In addition, the result in assay [16] was inactive.

For `COc1cc([C@H]2Oc3c(OC)cc(/C=C/CO)cc3[C@@H]2CO)ccc1O`, the IC50 was 35.6 µM in assay [1] and 52.3 µM in assay [2]. The Activity worked out at 3.86% in [3]; 70.2% in assay [4]; 6.2% in assay [5]; 19.1% in [6]; 0.6% in assay [7]; 8.39% in [13]. The Activity stood at 3.87% in assay [14] and 1.71% in assay [15]. Further, the outcome in [8], in [9], in assay [10], in assay [11] and in assay [16] was Active. The viability at 50 µM in [12] came to 86%.

Turning to `COc1cc([C@@H]2Oc3c(OC)cc(/C=C/C=O)cc3[C@H]2CO)ccc1O`, the IC50 worked out at 38.7 µM in assay [1] and 31.5 µM in [2].

Consider `COc1cc(C2Oc3c(OC)cc(/C=C/C=O)cc3C2CO)cc(OC)c1O` (racemic), for which the IC50 in [1] stood at 80.5 µM; in assay [2] it was 76.8 µM.

Regarding `COc1cc([C@H]2Oc3c(OC)cc(/C=C/C=O)cc3[C@@H]2CO)cc(OC)c1O`, the IC50 was 88.7 µM in assay [1] and 72.8 µM in [2].

For the compound `COc1cc(C2Oc3c(OC)cc(/C=C/C=O)cc3C2CO)ccc1O` (racemic), the IC50 turned out to be 36.5 µM in assay [1] and 29.3 µM in [2].

As to `COc1cc([C@@H]2Oc3c(OC)cc(/C=C/C=O)cc3[C@H]2CO)cc(OC)c1O`, the IC50 was 104 µM in assay [1] and 60.7 µM in [2].

Turning to `COc1cc(C2Oc3c(OC)cc(/C=C/CO)cc3C2CO)ccc1O` (racemic), the IC50 in [1] came out at 78.6 µM; in [2] it was 65.5 µM.

As to `COc1cc([C@H]2Oc3c(OC)cc(/C=C/C=O)cc3[C@@H]2CO)ccc1O`, the IC50 in assay [1] was determined as 38.1 µM; in assay [2], 22.4 µM.
